Test results taken from US20230220063A1, “IL-1BETA BINDING ANTIBODIES FOR USE IN TREATING CANCER” (NOVARTIS AG, priority 2017, published 2023).

System: incident cancers in post-myocardial infarction patients with hsCRP ≥2 mg/L
Assay: CANTOS trial: incident cancers, cancer mortality, canakinumab vs placebo
Assay type: in vivo, human

## canakinumab: high-affinity, fully human monoclonal antibody of the IgG1/k to interleukin-1β; INN number 8836
50 mg SC q 3 months
  Breast, incidence rate (number): 0.09(7) per 100 person years
  Central Nervous System, incidence rate (number): 0.04(3) per 100 person years
  Endocrine: Adrenal, incidence rate (number): 0 per 100 person years
  Endocrine: Thyroid, incidence rate (number): 0.01(1) per 100 person years
  Gastrointenstinal: Appendiceal, incidence rate (number): 0 per 100 person years
  Gastrointenstinal: Biliary, incidence rate (number): 0.03(2) per 100 person years
  Gastrointenstinal: Colorectal, incidence rate (number): 0.25(20) per 100 person years
  Gastrointenstinal: Esophageal, incidence rate (number): 0.08(6) per 100 person years
  Gastrointenstinal: Gastric, incidence rate (number): 0.04(3) per 100 person years
  Gastrointenstinal: Oral cavity/tongue, incidence rate (number): 0.03(2) per 100 person years
  Gastrointenstinal: Pancreatic, incidence rate (number): 0.04(3) per 100 person years
  Genitourinary: Bladder, incidence rate (number): 0.10(8) per 100 person years
  Genitourinary: Cervical, incidence rate (number): 0 per 100 person years
  Genitourinary: Endometrial/Uterine, incidence rate (number): 0.03(2) per 100 person years
  Genitourinary: Ovarian, incidence rate (number): 0 per 100 person years
  Genitourinary: Prostate, incidence rate (number): 0.19(15) per 100 person years
  Genitourinary: Testicular, incidence rate (number): 0 per 100 person years
  Hematopoetic: Leukemia, incidence rate (number): 0.01(1) per 100 person years
  Hematopoetic: Lymphoma, incidence rate (number): 0.04(3) per 100 person years
  Hematopoetic: Multiple myeloma, incidence rate (number): 0 per 100 person years
  Kidney, incidence rate (number): 0.13(10) per 100 person years
  Liver, incidence rate (number): 0.04(3) per 100 person years
  Lung Cancers: Adenocarcinoma or poorly differentiated large cell carcinoma or unspecified, incidence rate (number): 0.33 per 100 person years
  Lung Cancers: Pleural cancer, incidence rate (number): 0 per 100 person years
  Lung Cancers: Small cell lung cancer, incidence rate (number): 0.01 (1) per 100 person years
  Lung Cancers: Squamous cell lung carcinoma, incidence rate (number): 0.01 (1) per 100 person years
  Other cancer sites: Other, incidence rate (number): 0.08(6) per 100 person years
  Sarcoma / Bone, incidence rate (number): 0.01(1) per 100 person years
  Skin: Basal cell carcinoma, incidence rate (number): 0.28(22) per 100 person years
  Skin: Melanoma, incidence rate (number): 0.08(6) per 100 person years
  Skin: Other, incidence rate (number): 0 per 100 person years
  Skin: Squamous cell skin cancer, incidence rate (number): 0.10(8) per 100 person years
50 mg SC q 3 months, listed as Canakinumab
  Lung Cancers: Adenocarcinoma or poorly differentiated large cell carcinoma or unspecified, incidence rate (number): 0.33 (26) per 100 person years
150 mg SC q 3 months
  Breast, incidence rate (number): 0.05(4) per 100 person years
  Central Nervous System, incidence rate (number): 0.05(4) per 100 person years
  Endocrine: Adrenal, incidence rate (number): 0.01(1) per 100 person years
  Endocrine: Thyroid, incidence rate (number): 0.02(2) per 100 person years
  Gastrointenstinal: Appendiceal, incidence rate (number): 0 per 100 person years
  Gastrointenstinal: Biliary, incidence rate (number): 0.03(3) per 100 person years
  Gastrointenstinal: Colorectal, incidence rate (number): 0.19(16) per 100 person years
  Gastrointenstinal: Esophageal, incidence rate (number): 0.03(3) per 100 person years
  Gastrointenstinal: Gastric, incidence rate (number): 0.02(2) per 100 person years
  Gastrointenstinal: Oral cavity/tongue, incidence rate (number): 0.05(4) per 100 person years
  Gastrointenstinal: Pancreatic, incidence rate (number): 0.06(5) per 100 person years
  Genitourinary: Bladder, incidence rate (number): 0.08(7) per 100 person years
  Genitourinary: Cervical, incidence rate (number): 0.01(1) per 100 person years
  Genitourinary: Endometrial/Uterine, incidence rate (number): 0 per 100 person years
  Genitourinary: Ovarian, incidence rate (number): 0.01(1) per 100 person years
  Genitourinary: Prostate, incidence rate (number): 0.16(14) per 100 person years
  Genitourinary: Testicular, incidence rate (number): 0.01(1) per 100 person years
  Hematopoetic: Leukemia, incidence rate (number): 0.02(2) per 100 person years
  Hematopoetic: Lymphoma, incidence rate (number): 0.05(4) per 100 person years
  Hematopoetic: Multiple myeloma, incidence rate (number): 0 per 100 person years
  Kidney, incidence rate (number): 0.07(6) per 100 person years
  Liver, incidence rate (number): 0.06(5) per 100 person years
  Lung Cancers: Adenocarcinoma or poorly differentiated large cell carcinoma or unspecified, incidence rate (number): 0.27 per 100 person years
  Lung Cancers: Pleural cancer, incidence rate (number): 0 per 100 person years
  Lung Cancers: Small cell lung cancer, incidence rate (number): 0.01 (1) per 100 person years
  Lung Cancers: Squamous cell lung carcinoma, incidence rate (number): 0.02 (2) per 100 person years
  Other cancer sites: Other, incidence rate (number): 0.06(5) per 100 person years
  Sarcoma / Bone, incidence rate (number): 0 per 100 person years
  Skin: Basal cell carcinoma, incidence rate (number): 0.29(25) per 100 person years
  Skin: Melanoma, incidence rate (number): 0.06(5) per 100 person years
  Skin: Other, incidence rate (number): 0.06(5) per 100 person years
  Skin: Squamous cell skin cancer, incidence rate (number): 0.15(13) per 100 person years
150 mg SC q 3 months, listed as Canakinumab
  Lung Cancers: Adenocarcinoma or poorly differentiated large cell carcinoma or unspecified, incidence rate (number): 0.27 (23) per 100 person years
300 mg SC q 3 months
  Breast, incidence rate (number): 0.06(5) per 100 person years
